# Test results reported in US20230240290A1, “USE OF (Z)-3-HEXENYL ESTERS AND METHOD FOR PROTECTING PLANTS AGAINST PESTS” (UNIVERSITAT POLITÈCNICA DE VALÈNCIA, priority 2020, published 2023).
# Entries after “also recorded” stand apart in the source; their conditions may differ.
# Columns and labels:
# [1] = test system: SI-PI-II (marker for plant proteinase inhibitors); experiment: Transcriptional response of SI-PI-II in tomato plants exposed to volatiles (laboratory); format: in vivo, Solanum lycopersicum cv. Moneymaker; conditions: intact tomato plants exposed 24 h; filter paper, 1:10,000 ester:methanol; n=8
# Method: Moneymaker tomato plants were used. Two weeks after seed germination, the seedlings were individually transplanted into pots (8×8×8 cm). The plants were kept at 25±2° C., with a constant relative humidity of 65%±5% and a 14:10 h (light:dark) photoperiod. Tomato plants that had not received any pesticide treatment at four weeks of age (about 20 cm tall) were used. All volatiles used were obtained from Sigma-Aldrich (St. Louis, Mo., USA). Each volatile was exposed by using a 2×2 cm piece of filter paper on which 10 μl of a solution containing the corresponding volatile at a concentration of 1:10,000 [(Z)-3-hexenyl ester:methanol] was impregnated as an emitting source of the corresponding volatile (Pérez-Hedo, M. et al. Biocontrol, 63: 203-213 (2018)).
# To activate a plant, two pieces of filter paper impregnated with the volatile were placed at the bottom of a 30×30×30 cm plastic cage (BugDorm-1 Insect Tents; MegaView Science Co., Ltd, Taichung, Taiwan) into which the plant was introduced. A control treatment was carried out in which the two pieces of filter paper were impregnated with 10 μl of methanol. Eight repetitions per treatment were performed. The plants of the treatments were kept exposed to the volatile without disturbing for 24 hours in separate and isolated climatic chambers to avoid any interference from the volatiles and were kept at 25±2° C., 65±10% RH, and a 14:10 h (L:D) photoperiod. […]
# The methodology followed for extracting and quantifying gene expression was described by Pérez-Hedo et al. Journal of Pest Science 3: 543-554 (2015). The primers used were forward primer: 5′-[…]-3′ (SEQ ID NO: 1) and reverse primer: 5′-[…]-3′ (SEQ ID NO: 2) for the quantification of PR1, forward primer: 5′-[…]-3′ (SEQ ID NO: 3) and reverse primer: 5′-[…]-3′ (SEQ ID NO: 4) for SI-PI-I, and forward primer: 5′-[…]-3′ (SEQ ID NO: 5) and reverse primer: 5′-[…]-3′ (SEQ ID NO: 6) for the SI-PI-II gene. […]
# [2] = test system: Tuta absoluta; experiment: Field (commercial greenhouse) assay, leaflets infested by T. absoluta; format: in vivo; conditions: commercial tomato greenhouse, infested leaflets per plant, 500 dispensers/ha
# Method: To know the behavior of the dispensers loaded with (Z)-3-hexenyl propionate under real cultivation conditions, four commercial greenhouses for tomato cv Raf located in Xilxes (Castellón province), with a history of problems with T. absoluta contamination at the end of winter, were selected. An experimental design of randomized blocks was carried out where each greenhouse was considered a block with two treatments per block and 4 repetitions per treatment. […]
# Twenty plants randomly chosen by repetition were sampled weekly for 11 weeks, beginning 30 Jan. […] First, the number of leaflets infested by T. absoluta per plant was counted. Then the number of N. tenuis (adults and nymphs) throughout the apical third of each plant (leaves, flowers and shoots) was counted. Following the methodology described above, 6 samples were taken from the apical part of each plant per repetition, and these samples were immediately introduced into liquid nitrogen to quantify the expression of the PR1 and PIN2 genes (described in Example 1 and Example 2). The expression of these genes was quantified one day before, 4, and 8 weeks after hanging the dispensers in the greenhouses.
# [3] = test system: Tamarixia radiata; experiment: Y-tube olfactometer preference, exposed vs intact Carrizo citrange plants; format: in vivo; conditions: plants exposed 24 h vs intact plants
# Method: To assess the preference of D. citri females and the parasitoid T. radiata to Carrizo citrange plants that were previously exposed for 24 h to (Z)-3-HP in relation to intact plants, a Y-shaped olfactometer was used in the same way as that described in Example 1, and the plants were exposed to both volatiles as described above with the use of pieces of filter paper. A total of 40 valid replicates were recorded for each species for each pair of odor sources. Each individual was tested only once. […] After recording five responses, the Y-tube was rinsed with soapy water, cleaned with acetone, and allowed to dry for 5 minutes. The odor sources were later switched between the left and right side arms to minimize any spatial effect on choice. The two types of plants (intact and induced) were used only once to assess the response of 10 females and were then replaced with new plants. The Y-tube experiment was performed under the following environmental conditions: 25±1° C. and 60±10% RH.
# The D. citri adults were obtained from a colony established at SWFREC (University of Florida), initially originating from citrus fruits located in their experimental plots. The parasitoids were collected in these experimental fields. Newly emerged adult females less than 5 days old were used in all the assays.
# [4] = test system: plant; experiment: Growth and production of plants exposed to the volatile; format: in vivo
compound,measurement,setting,value
CC/C=C\CCOC(=O)CC [(Z)-3-hexenyl propanoate],Transcriptional response of SI-PI-II compared to the control,[1],significantly overexpressed
same,Infestation of T. absoluta lower than control,[2],about 58%
same,Response of Tamarixia radiata females to exposed citrus plants,[3],highly attractive; also recorded: more attractive
same,Growth or production of the plant,[4],does not reduce the growth or production of the plant
